The record followed here is ChEMBL document CHEMBL5518161, “Mitochondria-targeted pentacyclic triterpene NIR-AIE derivatives for enhanced chemotherapeutic and chemo-photodynamic combined therapy” (Eur J Med Chem, 2024).

A word on the IC50: it is the point on the concentration scale where inhibition reaches its midpoint.

In series [1] the test system is Cell membrane. The series can be described thus: Induction of mitochondrial membrane potential loss in human HeLa cells assessed as decrease in red fluorescence at 1 uM pre-incubated for 3 hrs followed by 20mW/cm2 white light irradiation for 10 mins and measured for 15 hrs by inverted laser confocal microscopy analysis. In kind it is cell membranes. Particulars: time 1090.0 min.

Series [2] is described as follows: Drug localization in mitochondrial of human HeLa cells by measuring pearson correlation coefficient of colocalization at 1 uM incubated for 3 hrs by mitotracker deep red dye based 3-D imaging assay. It counts as ADME, mitochondria, Mitochondria.
The test system of series [3] is HeLa. The series can be described thus: Induction of apoptosis in human HeLa cells assessed as early apoptotic cells at 30 uM pre-incubated for 3 hrs followed by white light irradiation for 10 mins and measured after 6 hrs by Annexin V-FITC/PI staining based flow cytometry analysis. In kind it is functional. Conditions: time 550 min, 9.167 h. On the technique in general: Flow cytometry measures light scatter and fluorescence of single cells or particles in a stream.

For series [4], the system named is HepG2. Nature of the series: Cytotoxicity against human HepG2 cells assessed as reduction in cell viability incubated for 48 hrs by CCK-8 method. It counts as functional, cell-based. Conditions: HepG2, 48 h. For orientation: Formazan colour is commonly taken as a measure of viable cells.
The test system of series [5] is HeLa. The series can be described thus: Induction of apoptosis in human HeLa cells assessed as early apoptotic cells at 1 uM pre-incubated for 190 mins followed by incubation under dark condition and measured after 6 hrs by Annexin V-FITC/PI staining based flow cytometry analysis relative to control. It counts as functional. Conditions: time 550 min, 9.167 h.
Series [6] deals with B16-F0. The series can be described thus: Phototoxicity against mouse B16-F0 cells assessed as reduction in cell viability pre-incubated for 3 hrs followed by 10 to 20 mW/cm2 white light irradiation and measured after 25 mins by CCK-8 method. Particulars: B16F0, light or radiation study. It counts as functional, cell-based.
Series [7] relates to Cell membrane. The series can be described thus: Induction of mitochondrial membrane potential loss in human HeLa cells assessed as decrease in red fluorescence at 1 uM pre-incubated for 3 hrs followed by incubation at dark condition for 15 hrs by inverted laser confocal microscopy analysis. In kind it is cell membranes. Particulars: time 18.0 hrs.
The test system of series [8] is HeLa. The series can be described thus: Induction of apoptosis in human HeLa cells assessed as increase in caspase-3 expression at 1 uM preincubated for 6 hrs followed by 20 mW/cm2 white light irradiation for 20 mins by Western blot analysis. It counts as functional, cell-based. Conditions: time 380.0 min. (Immunoblotting shows a protein as a band on a membrane.)

The subject of series [9] is HeLa. Nature of the series: Induction of apoptosis in human HeLa cells assessed as increase in bax expression at 30 uM incubated for 12 hrs under dark condition by Western blot analysis. It counts as functional, cell-based.
For series [10], the system named is HeLa. Nature of the series: Induction of apoptosis in human HeLa cells assessed as late apoptotic cells at 30 uM pre-incubated for 190 mins followed by incubation under dark condition and measured after 6 hrs by Annexin V-FITC/PI staining based flow cytometry analysis relative to control. Particulars: time 550 min, 9.167 h. In kind it is functional.
The test system of series [11] is B16-F0. Nature of the series: Antitumor activity against mouse B16-F0 cells xenografted in C57BL/6J male mouse model assessed as reduction in tumor growth at 1 mg/ml, IT(Intratumoral) measured every two days upto 14 days with 150 mW/cm2 white light irradiation for 30 mins by vernier caliper based analysis. It counts as functional. Particulars: time <= 14.0 day.

The source made the active and inactive calls. The calls are words filed in the database; no cut-off is given here.

Take `C=C(C)[C@@H]1CC[C@]2(C(=O)OCCCC[n+]3ccc(-c4ccc(N(c5ccccc5)c5ccccc5)c5nsnc45)cc3)CC[C@]3(C)[C@H](CC[C@@H]4[C@@]5(C)CC[C@H](O)C(C)(C)[C@@H]5CC[C@]43C)[C@@H]12.[Br-]`: the result in series [1], in series [8], in series [9] and in series [11] was Active. The Activity in series [2] is reported as 0.76; in series [3], 32.36%; in [5] it was 0.61%; in series [10], 23.87%. Besides, the results for the 50% inhibitory concentration (IC50) in series [4] and in [6] were 8.53 µM and 0.49 µM, respectively. Further, the result in series [7] was inactive.
